From PubChem BioAssay AID1745844 (Carcinogenic Potency Database (CPDB), 2022)
Active and inactive are the calls of the source. The rule behind the calls is not given here.

Tested on: rodent lifetime carcinogenesis bioassay, tumor incidence TD50
Assay: chronic cancer bioassays in animals – CPDB, compiled studies (AID 1745844)

C[C@@H]1CCCCN1N=O
TD50 (rat, strain Sprague-Dawley, both sexes, in drinking water, site: any site (literature study), lesion: malignant tumor, dosed 104 weeks, study length 104 weeks): 20.4 mg/kg/day
TD50 (rat, strain Sprague-Dawley, both sexes, in drinking water, site: liver, lesion: hepatocellular adenoma, dosed 104 weeks, study length 104 weeks): 108 mg/kg/day
TD50 (rat, strain Sprague-Dawley, both sexes, in drinking water, site: n. olfactorius, lesion: ependymoblastoma, dosed 104 weeks, study length 104 weeks): 22.1 mg/kg/day

Cc1c(N)nc(C)c2c1[nH]c1ccccc12
TD50 (mouse, strain CDF1, females, in feed, site: liver, lesion: hepatocellular carcinoma, dosed 88 weeks, study length 88 weeks): 29.6 mg/kg/day
TD50 (mouse, strain CDF1, females, in feed, site: liver, lesion: several types, types named in the paper, dosed 88 weeks, study length 88 weeks): 25 mg/kg/day
TD50 (mouse, strain CDF1, males, in feed, site: liver, lesion: hepatocellular carcinoma, dosed 88 weeks, study length 88 weeks): 112 mg/kg/day
TD50 (mouse, strain CDF1, males, in feed, site: liver, lesion: several types, types named in the paper, dosed 88 weeks, study length 88 weeks): 109 mg/kg/day
TD50 (rat, strain F344/DuCrj, females, in feed, site: liver, lesion: hepatocellular carcinoma, dosed 52 weeks, study length 52 weeks): 0.577 mg/kg/day
TD50 (rat, strain F344/DuCrj, males, in feed, site: liver, lesion: hepatocellular carcinoma, dosed 52 weeks, study length 52 weeks): 0.574 mg/kg/day

O=S(=O)([O-])[O-].[Cd+2]
carcinogen call (hamster, strain Syrian Golden, females, inhaled, site: lung, lesion: one or several types, types not named, dosed 61 weeks, study length 76 weeks): negative (inactive)
carcinogen call (hamster, strain Syrian Golden, females, inhaled, site: lung, lesion: one or several types, types not named, dosed 64 weeks, study length 77 weeks): negative (inactive)
carcinogen call (hamster, strain Syrian Golden, males, inhaled, site: lung, lesion: one or several types, types not named, dosed 61 weeks, study length 103 weeks): negative (inactive)
carcinogen call (hamster, strain Syrian Golden, males, inhaled, site: lung, lesion: one or several types, types not named, dosed 64 weeks, study length 113 weeks): negative (inactive)
TD50 (mouse, strain NMRI, females, inhaled, site: lung, lesion: adenocarcinoma, dosed 42 weeks, study length 96 weeks): 0.829 mg/kg/day (inactive)
carcinogen call (mouse, strain NMRI, females, inhaled, site: lung, lesion: adenocarcinoma, dosed 69 weeks, study length 94 weeks): negative (inactive)
carcinogen call (mouse, strain NMRI, females, inhaled, site: lung, lesion: adenoma, dosed 42 weeks, study length 96 weeks): negative (inactive)
carcinogen call (mouse, strain NMRI, females, inhaled, site: lung, lesion: adenoma, dosed 69 weeks, study length 94 weeks): negative (inactive)
carcinogen call (mouse, strain NMRI, females, inhaled, site: lung, lesion: several types, types named in the paper, dosed 42 weeks, study length 96 weeks): negative (inactive)
carcinogen call (mouse, strain NMRI, females, inhaled, site: lung, lesion: several types, types named in the paper, dosed 69 weeks, study length 94 weeks): negative (inactive)
TD50 (rat, strain Wistar, females, inhaled, site: lung, lesion: adenocarcinoma, dosed 78 weeks, study length 126 weeks): 0.112 mg/kg/day
TD50 (rat, strain Wistar, females, inhaled, site: lung, lesion: adenosquamous carcinoma, dosed 78 weeks, study length 126 weeks): 0.112 mg/kg/day
TD50 (rat, strain Wistar, females, inhaled, site: lung, lesion: alveolar/bronchiolar adenoma, dosed 78 weeks, study length 126 weeks): 0.18 mg/kg/day
TD50 (rat, strain Wistar, females, inhaled, site: lung, lesion: several types, types named in the paper, dosed 78 weeks, study length 126 weeks): 0.0174 mg/kg/day
TD50 (rat, strain Wistar, females, inhaled, site: lung, lesion: squamous-cell tumor, dosed 78 weeks, study length 126 weeks): 0.381 mg/kg/day
TD50 (rat, strain Wistar, males, inhaled, site: lung, lesion: adenocarcinoma, dosed 60 weeks, study length 134 weeks): 0.0537 mg/kg/day
TD50 (rat, strain Wistar, males, inhaled, site: lung, lesion: adenosquamous carcinoma, dosed 60 weeks, study length 134 weeks): 0.219 mg/kg/day
TD50 (rat, strain Wistar, males, inhaled, site: lung, lesion: alveolar/bronchiolar adenoma, dosed 60 weeks, study length 134 weeks): 0.219 mg/kg/day
TD50 (rat, strain Wistar, males, inhaled, site: lung, lesion: several types, types named in the paper, dosed 60 weeks, study length 134 weeks): 0.0289 mg/kg/day
